ChEMBL document CHEMBL1141877 (J Med Chem, 2005)

What was measured:
Butyrylcholinesterase = Butyrylcholinesterase (Rattus norvegicus, UniProt Q9JKC1); assay: Inhibitory concentration against butyrylcholinesterase of rat serum
Acetylcholinesterase = target: T1, Acetylcholinesterase (Rattus norvegicus, UniProt P37136); assay: Inhibitory concentration against acetylcholinesterase of rat cortex homogenate
T1 sequence (P37136 whole entry): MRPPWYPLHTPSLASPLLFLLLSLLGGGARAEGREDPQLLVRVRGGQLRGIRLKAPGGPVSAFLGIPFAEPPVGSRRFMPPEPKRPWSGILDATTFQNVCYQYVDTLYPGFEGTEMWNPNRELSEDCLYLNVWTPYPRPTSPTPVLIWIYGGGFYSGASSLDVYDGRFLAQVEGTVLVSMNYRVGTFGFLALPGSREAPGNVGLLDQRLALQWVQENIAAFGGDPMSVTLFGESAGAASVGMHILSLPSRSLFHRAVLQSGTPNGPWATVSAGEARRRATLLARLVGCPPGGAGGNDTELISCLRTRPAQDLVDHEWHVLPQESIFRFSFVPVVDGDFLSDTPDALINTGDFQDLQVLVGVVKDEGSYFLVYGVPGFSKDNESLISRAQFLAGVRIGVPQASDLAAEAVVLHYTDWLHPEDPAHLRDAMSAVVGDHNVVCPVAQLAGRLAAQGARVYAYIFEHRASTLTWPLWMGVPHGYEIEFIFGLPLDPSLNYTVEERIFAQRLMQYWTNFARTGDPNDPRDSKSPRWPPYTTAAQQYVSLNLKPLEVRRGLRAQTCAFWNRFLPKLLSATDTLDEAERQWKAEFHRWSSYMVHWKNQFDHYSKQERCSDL

Sequence of Butyrylcholinesterase (Q9JKC1 whole entry): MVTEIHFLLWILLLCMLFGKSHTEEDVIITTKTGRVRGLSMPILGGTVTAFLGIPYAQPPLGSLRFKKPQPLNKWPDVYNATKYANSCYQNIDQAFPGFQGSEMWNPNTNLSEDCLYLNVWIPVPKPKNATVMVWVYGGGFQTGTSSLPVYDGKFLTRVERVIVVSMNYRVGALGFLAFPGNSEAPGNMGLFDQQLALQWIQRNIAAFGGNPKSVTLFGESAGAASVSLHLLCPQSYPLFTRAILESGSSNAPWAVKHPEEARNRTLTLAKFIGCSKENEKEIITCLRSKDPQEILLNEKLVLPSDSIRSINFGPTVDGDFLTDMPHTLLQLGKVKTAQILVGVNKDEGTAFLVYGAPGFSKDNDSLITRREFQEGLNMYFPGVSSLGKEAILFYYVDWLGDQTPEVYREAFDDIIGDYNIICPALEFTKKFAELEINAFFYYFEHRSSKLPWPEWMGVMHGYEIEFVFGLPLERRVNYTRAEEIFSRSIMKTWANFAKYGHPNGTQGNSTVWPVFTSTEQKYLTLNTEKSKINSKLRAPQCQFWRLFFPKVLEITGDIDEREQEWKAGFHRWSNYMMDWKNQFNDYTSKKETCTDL

In the case of CC1=CC2Cc3[nH]c(=O)ccc3[C@@]3(C1)[C@@H]2CCCN3C(=O)CCN(C)CCCCCCN(C)CCC(=O)N1CCC[C@@H]2C3C=C(C)C[C@]21c1ccc(=O)[nH]c1C3, the IC50 (Butyrylcholinesterase) is reported as 67.9 µM and the IC50 (Acetylcholinesterase) is reported as 0.0359 µM.
Work on CC1=CC2Cc3[nH]c(=O)ccc3[C@@]3(C1)[C@@H]2CCCN3C(=O)CN(C)CCCCCCCCN(C)CC(=O)N1CCC[C@@H]2C3C=C(C)C[C@]21c1ccc(=O)[nH]c1C3 yielded an IC50 (Butyrylcholinesterase) of 65.4 µM and an IC50 (Acetylcholinesterase) of 0.0508 µM.
Molecule CC1=CC2Cc3[nH]c(=O)ccc3[C@@]3(C1)[C@@H]2CCCN3C(=O)CN(C)CCN(C)CC(=O)N1CCC[C@@H]2C3C=C(C)C[C@]21c1ccc(=O)[nH]c1C3 [BIS(8)-HUPERZINE B] has an IC50 (Acetylcholinesterase) of 1.02 µM.
Work on CC1=CC2Cc3[nH]c(=O)ccc3[C@@]3(C1)[C@@H]2CCCN3C(=O)CN(C)CCCN(C)CC(=O)N1CCC[C@@H]2C3C=C(C)C[C@]21c1ccc(=O)[nH]c1C3 [BIS(9)-HUPERZINE B] yielded an IC50 (Butyrylcholinesterase) of 60 µM and an IC50 (Acetylcholinesterase) of 0.471 µM.
Work on CC1=CC2Cc3[nH]c(=O)ccc3[C@@]3(C1)[C@@H]2CCCN3C(=O)CN(C)CCCCCCN(C)CC(=O)N1CCC[C@@H]2C3C=C(C)C[C@]21c1ccc(=O)[nH]c1C3 [BIS(12)-HUPERZINE B] yielded an IC50 (Butyrylcholinesterase) of 64.5 µM and an IC50 (Acetylcholinesterase) of 0.0762 µM.
For CC1=CC2Cc3[nH]c(=O)ccc3[C@@]3(C1)[C@@H]2CCCN3C(=O)CCN(C)CCCCCCCCN(C)CCC(=O)N1CCC[C@@H]2C3C=C(C)C[C@]21c1ccc(=O)[nH]c1C3 [BIS(16)-HUPERZINE B], the IC50 (Butyrylcholinesterase) was 63 µM and the IC50 (Acetylcholinesterase) was 0.0185 µM.
CC1=CC2Cc3[nH]c(=O)ccc3[C@@]3(C1)[C@@H]2CCCN3C(=O)CCN(C)CCCCCCCCCCN(C)CCC(=O)N1CCC[C@@H]2C3C=C(C)C[C@]21c1ccc(=O)[nH]c1C3 [BIS(18)-HUPERZINE B] was tested, and the IC50 (Butyrylcholinesterase) was 54.3 µM and the IC50 (Acetylcholinesterase) was 0.00493 µM.
CC1=CC2Cc3[nH]c(=O)ccc3[C@@]3(C1)[C@@H]2CCCN3C(=O)CCN(C)CCCCCCCCCCCCN(C)CCC(=O)N1CCC[C@@H]2C3C=C(C)C[C@]21c1ccc(=O)[nH]c1C3 [BIS(20)-HUPERZINE B] gave an IC50 (Butyrylcholinesterase) of 88.4 µM and an IC50 (Acetylcholinesterase) of 0.0252 µM.
Molecule CC1=C[C@H]2Cc3[nH]c(=O)ccc3[C@]3(C1)NCCC[C@H]23 [HUPERZINE B] has an IC50 (Butyrylcholinesterase) of 227 µM and an IC50 (Acetylcholinesterase) of 19.3 µM.
